Measurements taken from patent US20260061042A1, “POLYNUCLEOTIDE COMPOSITIONS AND USES THEREOF” (Pfizer Inc., priority 2024, published 2026).
Substitutions are numbered along the chain they refer to. “Also recorded” adds a separate entry of the source. Like-named read-outs stand apart in the source and are kept apart here.

What was measured:
Assay in all cases: PapG Luminex ligand binding at equilibrium
[1] = target: T1, E. coli CFT073 PapG-II lectin domain PapGLD N96S WT v1, SEQ ID NO: 13 (Escherichia coli, UniProt A0A0H2VAQ6, N116S); conditions: HEPES pH 7.4, 4° C. overnight
T1 sequence (A0A0H2VAQ6 with tags, fused parts or gaps N116S): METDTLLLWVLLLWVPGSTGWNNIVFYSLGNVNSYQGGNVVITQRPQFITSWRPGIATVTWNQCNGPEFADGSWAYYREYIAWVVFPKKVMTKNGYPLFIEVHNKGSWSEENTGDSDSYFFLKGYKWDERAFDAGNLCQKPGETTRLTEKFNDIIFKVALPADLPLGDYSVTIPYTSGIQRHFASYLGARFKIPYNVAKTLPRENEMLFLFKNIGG
Protocol: (§1) To determine the ability of PapGLD mutants to bind the porcine derived globotetraosyl ceramide ligand GalNAc-Gal-Gal-Glc-ceramide (GbO4), a Luminex ligand binding assay was developed. Surfactant Protein-A (SP-A) was coupled to the surface of MagPlex beads by EDC/NHS, to capture the lipid tail of the globotetraosyl ceramide. The Globotetraosyl ceramide/SP-A beads were incubated with an eight-point threefold titration of PapG in a 96 well flat bottom white plate with final volume of 100 microliters of 50 mM HEPES PH 7.4, 10 mM NaCl, 0.0005% Tween 20 shaking at 300 rpm, 4° C. overnight. After 20-24 hours the ligand binding plates were read on a FlexMap 3D plate reader for measurement of well-bead region specific MFI. Ligand binding equilibrium dissociation constants (Kd) were calculated assuming one site specific binding and interpolated using non-linear curve fitting (GraphPad Prism) as the ligand concentration needed to achieve half-maximal binding. The Luminex derived apparent Kd values are based on approximately fifty bead counts per assay sample.
(§2) To determine Luminex ligand binding affinities of PapG mutants for the synthetic globoside ligand Gal-Glc-phenoxy-octyl-amine (GbO2Mpo), a Luminex ligand binding assay was developed based on the direct coupling of the amine reactive globoside ligand to the EDC/NHS activated carboxylic surface of MagPlex beads. Synthesis of GbO2Mpo ligand with an octyl amine linker (for coupling to beads) was performed via methods described previously. The GbO2Mpo beads were incubated with an 8-point, threefold titration of PapG in a 96-well flat bottom white plate with final volume of 100 μl of 50 mM HEPES pH 7.4, 10 mM NaCl, 0.0005% Tween 20 shaking at 300 rpm, 4° C. overnight. After 20-24 hours the ligand binding plates were read on a FlexMap 3D plate reader for measurement of well-bead region specific MFI.
(§3) Binding of PapG proteins to GbO2 or GbO4 ligands was evaluated using a Luminex platform wherein ligands were coupled to MagPlex beads via surfactant protein A (for […]) or directly using […] conjugation (for […]). This assay was used to rank order binding affinities of the mutants, reported as Kd values interpolated from protein antigen titration curves (Table 7).

[2] = target: T2, E. coli CFT073 PapG-II lectin domain PapGLD variant N96S G104A, SEQ ID NO: 16 (Escherichia coli, UniProt A0A0H2VAQ6, G124A/N116S); conditions: for Kd: HEPES pH 7.4, 4° C. overnight
T2 sequence (A0A0H2VAQ6 with tags, fused parts or gaps N116S/G124A): T1 sequence (A0A0H2VAQ6 with tags, fused parts or gaps N116S) with G124A
Protocol: as §1, §2, §3

[3] = target: T3, E. coli CFT073 PapG-II lectin domain PapGLD variant N96S G147A, SEQ ID NO: 21 (Escherichia coli, UniProt A0A0H2VAQ6, G167A/N116S); conditions: HEPES pH 7.4, 4° C. overnight
T3 sequence (A0A0H2VAQ6 with tags, fused parts or gaps N116S/G167A): T1 sequence (A0A0H2VAQ6 with tags, fused parts or gaps N116S) with G167A
Protocol: as §1, §2, §3

[4] = target: T4, E. coli CFT073 PapG-II lectin domain PapGLD variant N96S G86A, SEQ ID NO: 14 (Escherichia coli, UniProt A0A0H2VAQ6, G106A/N116S); conditions: HEPES pH 7.4, 4° C. overnight
T4 sequence (A0A0H2VAQ6 with tags, fused parts or gaps G106A/N116S): T1 sequence (A0A0H2VAQ6 with tags, fused parts or gaps N116S) with G106A
Protocol: as §1, §2, §3

[5] = target: T5, E. coli CFT073 PapG-II lectin domain PapGLD variant N96S S89T, SEQ ID NO: 15 (Escherichia coli, UniProt A0A0H2VAQ6, N116S/S109T); conditions: HEPES pH 7.4, 4° C. overnight
T5 sequence (A0A0H2VAQ6 with tags, fused parts or gaps S109T/N116S): T1 sequence (A0A0H2VAQ6 with tags, fused parts or gaps N116S) with S109T
Protocol: as §1, §2, §3

[6] = target: T6, E. coli CFT073 full-length donor strand complemented PapG-II, PapGDSF N96S N286S (Escherichia coli, UniProt A0A0H2VAQ6, N116S/N306S); conditions: HEPES pH 7.4, 4° C. overnight
T6 construct: mouse IgGK signal peptide, C-terminal 8xHis, ExpiCHO, purified
T6 sequence (A0A0H2VAQ6 with tags, fused parts or gaps N116S/N306S): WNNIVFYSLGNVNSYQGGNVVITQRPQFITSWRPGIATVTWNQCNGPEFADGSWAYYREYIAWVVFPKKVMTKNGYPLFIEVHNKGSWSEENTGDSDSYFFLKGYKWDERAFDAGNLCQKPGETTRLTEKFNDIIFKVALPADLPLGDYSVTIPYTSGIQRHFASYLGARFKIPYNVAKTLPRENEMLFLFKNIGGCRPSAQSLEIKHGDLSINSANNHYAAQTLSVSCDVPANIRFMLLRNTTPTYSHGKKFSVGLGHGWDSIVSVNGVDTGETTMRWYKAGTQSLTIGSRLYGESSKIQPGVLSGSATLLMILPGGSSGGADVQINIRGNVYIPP
Protocol: as §1, §2, §3

[7] = GbO2Mpo beads, read-out: Kd (GbO2)
[8] = GbO4 beads, read-out: Kd (GbO4)

## Gal-Glc-phenoxy-octyl-amine [GbO2]
[1]; [7]
  Kd: 0.7 nM
[2]; [7]
  Kd: > 300 nM
[3]; [7]
  Kd: 4.6 nM
[4]; [7]
  Kd: 1.3 nM
[5]; [7]
  Kd: 1 nM
[6]; [7]
  Kd: 1.6 nM

## GalNAc-Gal-Gal-Glc-ceramide [GbO4]
[1]; [8]
  Kd: 14.1 nM
[2]
  binding to GbO4 (in words): lower the binding affinity; also recorded: eliminate ligand binding
[2]; [8]
  Kd: > 300 nM
[3]; [8]
  Kd: > 300 nM
[4]; [8]
  Kd: 15 nM
[5]; [8]
  Kd: < 50 nM
[6]; [8]
  Kd: 8.8 nM
